pIC50: −log10 of the molar value. Activity calls are given as the source filed them. The rule behind the calls is not given here.
Assays:
[1] = biological target: Metabotropic glutamate receptor 5 (Rattus norvegicus, UniProt P31424); assay: Negative allosteric modulation of rat mGluR5 expressed in HEK293 assessed as decrease in intracellular calcium incubated for 30 mins by Fluo-6 calcium dye based FLIPR assay; assay type: functional, cell-based
Mus musculus [2] = assay: Antidepressant activity in chronic unpredictable mild stress induced depression C57BL/6J mouse model assessed as change in total distance travelled at 5 to 20 mg/kg,IG administration for 3 days by open field test; assay type: functional, organism-based; settings: dose 5-20 mg/kg, time 3.0 day
Mus musculus [3] = assay: Antidepressant activity in chronic unpredictable mild stress induced depression C57BL/6J mouse model assessed as increase in frequency entering the central area at 10 mg/kg,IG administration for 3 days by open field test; assay type: functional, organism-based; settings: time 3.0 day
Mus musculus [4] = assay: Antidepressant activity in chronic unpredictable mild stress induced depression C57BL/6J mouse model assessed as increase in time spent in central area at 10 mg/kg,IG administration for 3 days by open field test; assay type: functional, organism-based; settings: time 3.0 day
Mus musculus [5] = assay: Antidepressant activity in chronic unpredictable mild stress induced depression C57BL/6J mouse model assessed as increase in frequency entering the central area at 20 mg/kg,IG administration for 3 days by open field test; assay type: functional, organism-based; settings: time 3.0 day
Mus musculus [6] = assay: Antidepressant activity in chronic unpredictable mild stress induced depression C57BL/6J mouse model assessed as increase in time spent in central area at 20 mg/kg,IG administration for 3 days by open field test; assay type: functional, organism-based; settings: time 3.0 day
Mus musculus [7] = assay: Antidepressant activity in chronic unpredictable mild stress induced depression C57BL/6J mouse model assessed as increase in body weight at 5 to 20 mg/kg,IG administration for 3 days; assay type: functional, organism-based; settings: dose 5-20 mg/kg, time 3.0 day
Mus musculus [8] = assay: Antidepressant activity in chronic unpredictable mild stress induced depression C57BL/6J mouse model assessed as decrease in immobility time at 5 to 20 mg/kg,IG administration for 3 days by forced swimming test; assay type: functional, organism-based; settings: dose 5-20 mg/kg, time 3.0 day
Mus musculus [9] = assay: Antidepressant activity in chronic unpredictable mild stress induced depression C57BL/6J mouse model assessed as decrease in immobility time at 5 to 20 mg/kg,IG administration for 3 days by tail suspension test; assay type: functional, organism-based; settings: dose 5-20 mg/kg, time 3.0 day
Mus musculus [10] = assay: Antidepressant activity in chronic unpredictable mild stress induced depression C57BL/6J mouse model assessed as downregulation of CORT level in peripheral serum at 10 mg/kg,IG administration for 3 days by ELISA; assay type: functional, organism-based; settings: time 3.0 day
Mus musculus [11] = assay: Antidepressant activity in chronic unpredictable mild stress induced depression C57BL/6J mouse model assessed as downregulation of CORT level in peripheral serum at 20 mg/kg,IG administration for 3 days by ELISA; assay type: functional, organism-based; settings: time 3.0 day
Mus musculus [12] = assay: Antidepressant activity in chronic unpredictable mild stress induced depression C57BL/6J mouse model assessed as upregulation of 5-HT level in peripheral serum at 20 mg/kg,IG administration for 3 days by ELISA; assay type: functional, organism-based; settings: time 3.0 day
Mus musculus [13] = assay: Antidepressant activity in chronic unpredictable mild stress induced depression C57BL/6J mouse model assessed as upregulation of PKA phosphorylation in hippocampus at 20 mg/kg,IG administration for 3 days by Western blotting analysis; assay type: functional, organism-based; settings: time 3.0 day
Mus musculus [14] = assay: Antidepressant activity in chronic unpredictable mild stress induced depression C57BL/6J mouse model assessed as upregulation of BDNF expression in hippocampus at 10 mg/kg,IG administration for 3 days by Western blotting analysis; assay type: functional, organism-based; settings: time 3.0 day
Mus musculus [15] = assay: Antidepressant activity in chronic unpredictable mild stress induced depression C57BL/6J mouse model assessed as upregulation of BDNF expression in hippocampus at 20 mg/kg,IG administration for 3 days by Western blotting analysis; assay type: functional, organism-based; settings: time 3.0 day
Mus musculus [16] = assay: Antidepressant activity in chronic unpredictable mild stress induced depression C57BL/6J mouse model assessed as upregulation of TrkB phosphorylation in hippocampus at 10 mg/kg,IG administration for 3 days by Western blotting analysis; assay type: functional, organism-based; settings: time 3.0 day
Mus musculus [17] = assay: Antidepressant activity in chronic unpredictable mild stress induced depression C57BL/6J mouse model assessed as upregulation of TrkB phosphorylation in hippocampus at 20 mg/kg,IG administration for 3 days by Western blotting analysis; assay type: functional, organism-based; settings: time 3.0 day
Mus musculus [18] = assay: Antidepressant activity in chronic unpredictable mild stress induced depression C57BL/6J mouse model assessed as upregulation of GluA1 expression in hippocampus at 5 to 20 mg/kg,IG administration for 3 days by Western blotting analysis; assay type: functional, organism-based; settings: dose 5-20 mg/kg, time 3.0 day
Mus musculus [19] = assay: Antidepressant activity in chronic unpredictable mild stress induced depression C57BL/6J mouse model assessed as upregulation of GluA2 expression in hippocampus at 5 to 20 mg/kg,IG administration for 3 days by Western blotting analysis; assay type: functional, organism-based; settings: dose 5-20 mg/kg, time 3.0 day
[20] = Toxicity in chronic unpredictable mild stress induced depression C57BL/6J mouse model assessed as change in creatine kinase level in heart at 40 mg/kg,IG administration for 3 days by ELISA; assay type: organism-based; settings: in vivo, po, 72 h, time 3 day
[21] = Toxicity in chronic unpredictable mild stress induced depression C57BL/6J mouse model assessed as change in AST level in liver at 40 mg/kg,IG administration for 3 days by ELISA; assay type: organism-based; settings: in vivo, po, 72 h, time 3 day
[22] = Toxicity in chronic unpredictable mild stress induced depression C57BL/6J mouse model assessed as change in ALT level in liver at 40 mg/kg,IG administration for 3 days by ELISA; assay type: organism-based; settings: in vivo, po, 72 h, time 3 day
Mus musculus [23] = assay: Antidepressant activity in chronic unpredictable mild stress induced depression C57BL/6J mouse model assessed as change in total distance travelled at 5 mg/kg,IG administration for 3 days by open field test; assay type: functional, organism-based; settings: time 3.0 day
Mus musculus [24] = assay: Antidepressant activity in chronic unpredictable mild stress induced depression C57BL/6J mouse model assessed as increase in frequency entering the central area at 5 mg/kg,IG administration for 3 days by open field test; assay type: functional, organism-based; settings: time 3.0 day
Mus musculus [25] = assay: Antidepressant activity in chronic unpredictable mild stress induced depression C57BL/6J mouse model assessed as increase in time spent in central area at 5 mg/kg,IG administration for 3 days by open field test; assay type: functional, organism-based; settings: time 3.0 day
Mus musculus [26] = assay: Antidepressant activity in chronic unpredictable mild stress induced depression C57BL/6J mouse model assessed as increase in body weight at 5 mg/kg,IG administration for 3 days; assay type: functional, organism-based; settings: time 3.0 day
Mus musculus [27] = assay: Antidepressant activity in chronic unpredictable mild stress induced depression C57BL/6J mouse model assessed as decrease in immobility time at 5 mg/kg,IG administration for 3 days by forced swimming test; assay type: functional, organism-based; settings: time 3.0 day
Mus musculus [28] = assay: Antidepressant activity in chronic unpredictable mild stress induced depression C57BL/6J mouse model assessed as decrease in immobility time at 5 mg/kg,IG administration for 3 days by tail suspension test; assay type: functional, organism-based; settings: time 3.0 day
Mus musculus [29] = assay: Antidepressant activity in chronic unpredictable mild stress induced depression C57BL/6J mouse model assessed as downregulation of CORT level in peripheral serum at 5 mg/kg,IG administration for 3 days by ELISA; assay type: functional, organism-based; settings: time 3.0 day
Mus musculus [30] = assay: Antidepressant activity in chronic unpredictable mild stress induced depression C57BL/6J mouse model assessed as upregulation of 5-HT level in peripheral serum at 5 mg/kg,IG administration for 3 days by ELISA; assay type: functional, organism-based; settings: time 3.0 day

Sequence of Metabotropic glutamate receptor 5 (P31424 whole entry): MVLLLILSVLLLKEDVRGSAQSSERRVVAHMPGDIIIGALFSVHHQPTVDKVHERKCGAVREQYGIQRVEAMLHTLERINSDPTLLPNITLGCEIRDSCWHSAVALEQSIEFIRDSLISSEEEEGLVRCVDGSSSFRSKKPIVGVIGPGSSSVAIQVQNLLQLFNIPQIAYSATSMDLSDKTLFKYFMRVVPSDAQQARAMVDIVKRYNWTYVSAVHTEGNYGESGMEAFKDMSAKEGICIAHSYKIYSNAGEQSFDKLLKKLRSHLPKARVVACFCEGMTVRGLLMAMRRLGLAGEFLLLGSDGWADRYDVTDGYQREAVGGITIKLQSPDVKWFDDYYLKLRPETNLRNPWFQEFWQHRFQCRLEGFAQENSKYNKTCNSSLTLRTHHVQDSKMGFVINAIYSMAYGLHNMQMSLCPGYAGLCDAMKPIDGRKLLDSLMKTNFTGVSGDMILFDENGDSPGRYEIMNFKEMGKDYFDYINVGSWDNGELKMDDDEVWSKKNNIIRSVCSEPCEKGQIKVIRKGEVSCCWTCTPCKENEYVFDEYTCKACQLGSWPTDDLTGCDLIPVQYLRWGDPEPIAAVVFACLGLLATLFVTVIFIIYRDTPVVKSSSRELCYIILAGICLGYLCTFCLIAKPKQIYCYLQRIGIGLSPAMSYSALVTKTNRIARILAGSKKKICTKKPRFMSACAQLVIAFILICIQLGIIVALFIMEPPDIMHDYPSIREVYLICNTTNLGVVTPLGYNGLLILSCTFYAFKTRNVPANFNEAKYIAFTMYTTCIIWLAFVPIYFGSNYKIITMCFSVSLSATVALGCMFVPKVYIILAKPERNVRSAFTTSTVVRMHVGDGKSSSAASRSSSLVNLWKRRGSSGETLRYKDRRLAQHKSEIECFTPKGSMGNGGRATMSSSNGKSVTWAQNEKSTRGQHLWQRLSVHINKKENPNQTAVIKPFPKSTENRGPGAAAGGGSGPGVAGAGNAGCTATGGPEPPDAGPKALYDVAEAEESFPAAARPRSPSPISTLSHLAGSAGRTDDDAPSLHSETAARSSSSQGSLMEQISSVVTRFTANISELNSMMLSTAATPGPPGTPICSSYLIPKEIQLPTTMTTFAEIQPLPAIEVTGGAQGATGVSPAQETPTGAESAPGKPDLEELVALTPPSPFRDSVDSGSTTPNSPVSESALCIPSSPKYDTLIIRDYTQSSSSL

COc1ccc(C#Cc2ncnc3c2cc(C(=O)Nc2ccc(C)cc2)n3C)cc1
pIC50 [1]: 6.62

Cn1c(C(=O)Nc2cccc(Cl)c2)cc2c(C#Cc3ccccc3)ncnc21
pIC50 [1]: 6.28

Cc1ccc(C#Cc2ncnc3c2cc(C(=O)Nc2ccc(F)cc2)n3C)cc1
pIC50 [1]: 6.00

COc1ccc(NC(=O)c2cc3c(C#Cc4ccc(C)cc4)ncnc3n2C)cc1
pIC50 [1]: 6.45

Cn1c(C(=O)Nc2ccc(F)cc2)cc2c(C#Cc3ccc(F)cc3)ncnc21
pIC50 [1]: 7.04

Cn1c(C(=O)Nc2ccc(I)cc2)cc2c(C#Cc3ccccc3)ncnc21
pIC50 [1]: 6.71

Cc1ccc(C#Cc2ncnc3c2cc(C(=O)Nc2ccc(N(C)C)cc2)n3C)cc1
pIC50 [1]: 5.42

Cn1c(C(=O)Nc2ccc(C(C)(C)C)cc2)cc2c(C#Cc3ccc(F)cc3)ncnc21
pIC50 [1]: 5.63

COc1ccc(C#Cc2ncnc3c2cc(C(=O)Nc2ccc(OC)cc2)n3C)cc1
pIC50 [1]: 7.08

Cc1ccc(NC(=O)c2cc3c(C#Cc4ccccc4)ncnc3n2C)cc1
pIC50 [1]: 7.41

CN(C)c1ccc(NC(=O)c2cc3c(C#Cc4ccc(F)cc4)ncnc3n2C)cc1
pIC50 [1]: 6.87

CN(C)c1ccc(NC(=O)c2cc3c(C#Cc4ccccc4)ncnc3n2C)cc1
pIC50 [1]: 6.90

Cc1ccc(C#Cc2ncnc3c2cc(C(=O)Nc2ccc(C(C)(C)C)cc2)n3C)cc1
pIC50 [1]: < 5.00

Cc1ccc(C#Cc2ncnc3c2cc(C(=O)Nc2ccc(C)cc2)n3C)cc1
pIC50 [1]: 6.02

Cn1c(C(=O)Nc2ccc(Cl)cc2)cc2c(C#Cc3ccccc3)ncnc21
pIC50 [1]: 6.21

COc1ccc(C#Cc2ncnc3c2cc(C(=O)Nc2ccc(N(C)C)cc2)n3C)cc1
pIC50 [1]: 6.08

Cn1c(C(=O)Nc2ccccc2)cc2c(C#Cc3ccc(F)cc3)ncnc21
pIC50 [1]: 7.21

Cn1c(C(=O)Nc2ccccc2)cc2c(C#Cc3ccccc3)ncnc21
pIC50 [1]: 7.12

Cc1nc(C#Cc2ccnc(Cl)c2)c(C)n1-c1ccc(F)cc1 [BASIMGLURANT]
pIC50 [1]: 8.37

COc1ccc(NC(=O)c2cc3c(C#Cc4ccccc4)ncnc3n2C)cc1
pIC50 [1]: 7.94
Activity (Mus musculus [2]): inactive
Activity (Mus musculus [3]): Active
Activity (Mus musculus [4]): Active
Activity (Mus musculus [5]): Active
Activity (Mus musculus [6]): Active
Activity (Mus musculus [7]): Active
Activity (Mus musculus [8]): Active
Activity (Mus musculus [9]): Active
Activity (Mus musculus [10]): Active
Activity (Mus musculus [11]): Active
Activity (Mus musculus [12]): Active
Activity (Mus musculus [13]): Active
Activity (Mus musculus [14]): Active
Activity (Mus musculus [15]): Active
Activity (Mus musculus [16]): Active
Activity (Mus musculus [17]): Active
Activity (Mus musculus [18]): Active
Activity (Mus musculus [19]): Active
Activity [20]: Non-Toxic
Activity [21]: Non-Toxic
Activity [22]: Non-Toxic

Cn1c(C(=O)Nc2ccc(C(C)(C)C)cc2)cc2c(C#Cc3ccccc3)ncnc21
pIC50 [1]: 5.86

Cc1ccc(C#Cc2ncnc3c2cc(C(=O)Nc2ccccc2)n3C)cc1
pIC50 [1]: 5.86

Cn1c(C(=O)Nc2ccc(Cl)c(Cl)c2)cc2c(C#Cc3ccccc3)ncnc21
pIC50 [1]: 5.69

Cc1nc(C#Cc2ncnc3c2cc(C(=O)Nc2ccccc2)n3C)cs1
pIC50 [1]: 5.64

COc1ccc(C#Cc2ncnc3c2cc(C(=O)Nc2ccc(C(C)(C)C)cc2)n3C)cc1
pIC50 [1]: 6.13

Cn1c(C(=O)Nc2ccc(F)cc2)cc2c(C#Cc3ccccc3)ncnc21
pIC50 [1]: 7.20

Cn1c(C(=O)Nc2ccc(F)cc2)cc2c(C#Cc3ccccn3)ncnc21
pIC50 [1]: 5.50

CNCCC(Oc1ccc(C(F)(F)F)cc1)c1ccccc1 (configuration not stated)
Activity (Mus musculus [23]): inactive
Activity (Mus musculus [24]): Active
Activity (Mus musculus [25]): Active
Activity (Mus musculus [26]): Active
Activity (Mus musculus [27]): Active
Activity (Mus musculus [28]): Active
Activity (Mus musculus [29]): Active
Activity (Mus musculus [30]): Active

Cc1ccc(NC(=O)c2cc3c(C#Cc4csc(C)n4)ncnc3n2C)cc1
pIC50 [1]: 5.25

COc1ccc(NC(=O)c2cc3c(C#Cc4csc(C)n4)ncnc3n2C)cc1
pIC50 [1]: 6.63

COc1ccc(C#Cc2ncnc3c2cc(C(=O)Nc2ccccc2)n3C)cc1
pIC50 [1]: 6.12

COc1ccc(NC(=O)c2cc3c(C#Cc4ccccn4)ncnc3n2C)cc1
pIC50 [1]: 6.04

Cn1c(C(=O)Nc2ccc(OC(F)(F)F)cc2)cc2c(C#Cc3ccccc3)ncnc21
pIC50 [1]: 6.51

Cn1c(C(=O)Nc2ccc(C(C)(C)C)cc2)cc2c(C#Cc3ccccn3)ncnc21
pIC50 [1]: 5.69

Cc1ccc(NC(=O)c2cc3c(C#Cc4ccc(F)cc4)ncnc3n2C)cc1
pIC50 [1]: 6.99

Cn1c(C(=O)Nc2ccc(Cl)cc2)cc2c(C#Cc3ccc(F)cc3)ncnc21
pIC50 [1]: 6.61

COc1ccc(C#Cc2ncnc3c2cc(C(=O)Nc2ccc(F)cc2)n3C)cc1
pIC50 [1]: 6.32

COc1ccc(NC(=O)c2cc3c(C#Cc4ccc(F)cc4)ncnc3n2C)cc1
pIC50 [1]: 7.82

CN(C)c1ccc(NC(=O)c2cc3c(C#Cc4ccccn4)ncnc3n2C)cc1
pIC50 [1]: 5.61
